According to ChEMBL document CHEMBL4616653, “Naphthacemycins from a Streptomyces sp. as Protein-Tyrosine Phosphatase Inhibitors” (J Nat Prod, 2020):

Target: T1, Tyrosine-protein phosphatase non-receptor type 1 (Homo sapiens, UniProt P18031)
T1 sequence (P18031 whole entry): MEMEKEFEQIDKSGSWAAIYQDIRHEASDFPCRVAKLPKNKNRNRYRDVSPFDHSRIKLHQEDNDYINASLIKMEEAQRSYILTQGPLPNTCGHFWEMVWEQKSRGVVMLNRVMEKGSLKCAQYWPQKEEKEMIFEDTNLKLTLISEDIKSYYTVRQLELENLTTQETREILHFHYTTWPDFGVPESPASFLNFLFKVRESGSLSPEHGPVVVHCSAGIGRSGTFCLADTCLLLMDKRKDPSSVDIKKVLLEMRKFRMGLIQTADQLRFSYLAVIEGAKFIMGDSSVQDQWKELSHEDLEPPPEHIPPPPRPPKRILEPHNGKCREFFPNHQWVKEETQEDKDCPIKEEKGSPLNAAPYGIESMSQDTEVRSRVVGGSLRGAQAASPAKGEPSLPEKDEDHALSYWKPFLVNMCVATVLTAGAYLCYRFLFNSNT
Assay: Inhibition of recombinant human PTP1B expressed in Escherichia coli using pNPP as substrate preincubated for 15 mins followed by substrate addition and measured after 60 mins

Row | IC50 [nM] | Structure (SMILES)
1 | 340 | COc1c(Cl)c(O)c(Cl)c(C)c1-c1cc(O)c(Cl)c2cc3c(c(O)c12)C(=O)c1c(O)c(Cl)c(O)c(Cl)c1C3(C)C
2 | 2110 | COc1cc(O)c(Cl)c(C)c1-c1cc(O)cc2cc3c(c(O)c12)C(=O)c1c(O)c(Cl)c(O)c(Cl)c1C3(C)C
3 | 7690 | COc1cc(O)cc(C)c1-c1cc(O)cc2cc3c(c(O)c12)C(=O)c1c(cc(O)c(Cl)c1O)C3(C)C
4 | 2700 | COc1cc(O)c(Cl)c(C)c1-c1cc(O)cc2cc3c(c(O)c12)C(=O)c1c(cc(O)c(Cl)c1O)C3(C)C
5 | 8270 | COc1cc(O)c(Cl)c(C)c1-c1cc(O)c(Cl)c2cc3c(c(O)c12)C(=O)c1c(cc(O)c(Cl)c1O)C3(C)C
6 | 2620 | COc1cc(O)c(Cl)c(C)c1-c1cc(O)c(Br)c2cc3c(c(O)c12)C(=O)c1c(O)cc(O)cc1C3(C)C
7 | 3380 | COc1cc(O)c(Cl)c(C)c1-c1cc(O)cc2cc3c(c(O)c12)C(=O)c1c(O)cc(O)cc1C3(C)C
8 | 2810 | COc1cc(O)c(Cl)c(C)c1-c1cc(O)c(Cl)c2cc3c(c(O)c12)C(=O)c1c(O)c(Cl)c(O)c(Cl)c1C3(C)C
